We go through three compounds from publication PMC9486808 (ACS Chemical Biology, 2022).

Entries after “also recorded” stand apart in the source; their conditions may differ. Read-outs that look alike come from different tables or passages of the source. Positions of bridges follow the written chain, without caps; N, C: chain ends. Non-standard residues stand in square brackets, D forms with d. Residues, ends and D or L forms follow the SMILES beside them.

In data set [1] the target is T1, H1 ectodomain (Influenza A virus, UniProt C3W5S1). Kind of data set: biochemical. It is filed as binding, Influenza A virus A/California/04/2009 (H1N1).
The next data set addresses H1 HA (Influenza A virus, UniProt C3W5S1). In kind it is binding, Influenza A virus A/California/04/2009 (H1N1).
Data set [2] has as its target T1, H1 ectodomain. Kind of data set: biochemical. It is filed as binding, Influenza A virus A/California/04/2009 (H1N1). Conditions: read-out: Kd1.
For another data set, the target named is H1stem. It is filed as binding, Influenza A virus A/Kentucky/UR06-0258/2007 (H1N1). Conditions: read-out: Kd1.
For the next data set, the system named is H3 ectodomain. In kind it is binding, Influenza A virus A/Fujian/411/2002 (H3N2). Particulars: for Kd: read-out: Kd1.
For data set [3], the system named is H1N1pdm09 (A/Netherlands/602/2009). In kind it is cell-based, Influenza A virus.
Data set [4] deals with H1N1pr8 (A/PR8/8/34/Mount Sinai). It is filed as cell-based, Influenza A virus.
For data set [5], the system named is H3N1 virus carrying H3 HA of A/Bilthoven/1761/76 (H3N2) in the H1N1pr8 background. In kind it is cell-based, Influenza A virus.
In data set [6] the target is H1 ectodomain of A/California/04/2009 (H1N1) (Influenza A virus, UniProt C3W5S1). In kind it is binding, Influenza A virus A/California/04/2009 (H1N1).
For data set [7], the system named is H1N1pdm09 (A/Netherlands/602/2009). Conditions: for IC50: 16 h.
Data set [8] concerns H5N1 virus carrying H5 HA of A/duck/Hunan/795/2002 in the H1N1pr8 genetic background. Particulars: 16 h.
A further data set can be described thus: in vitro. Particulars: HeLa R19 cells and MDCKI cells.
For data set [9], the system named is H5N1 virus carrying H5 HA of A/duck/Hunan/795/2002 in the H1N1pr8 genetic background. In kind it is cell-based, Influenza A virus.
For a further data set, the system named is H1N1pdm09. Further details: species or system Influenza A virus.
Data set [10] deals with full-length H1 of A/California/04/2009 (H1N1) (Influenza A virus, UniProt C3W5S1). In kind it is cell-based, Influenza A virus A/California/04/2009 (H1N1). Conditions: pH 5.

What is called IC50 is the concentration needed to halve the response being measured. The low end stands for inhibition by little substance, the high end for a need for much substance. The term CC50 denotes the concentration that lowers cell viability or growth by half. Read a high CC50 as better tolerance by the cells. Take `CC(C)[C@@H]1NC(=O)[C@H](Cc2c[nH]c3ccccc23)NC(=O)[C@H](CCCNC(=N)N)NC(=O)[C@H](Cc2ccc(O)cc2)NC(=O)CSC[C@@H](C(=O)NCC(N)=O)NC(=O)[C@H](C(C)C)NC(=O)[C@H](C(C)C)NC(=O)[C@H](Cc2ccccc2)NC(=O)[C@H](Cc2ccc(O)cc2)NC(=O)[C@@H]2CCCN2C(=O)[C@H](CCC(=O)O)NC(=O)[C@H](CO)NC(=O)[C@H](Cc2ccccc2)NC(=O)[C@H](Cc2ccccc2)NC(=O)[C@H](CO)NC(=O)[C@H]([C@@H](C)O)NC(=O)[C@H](Cc2c[nH]c3ccccc23)NC1=O` [L4] ({CH2CO}-YRWVWTSFFSEPYFVVCG-NH2; thioether N-17): the Kd on H1 ectodomain [1] was not above 1 nM; at H1 ectodomain [2], 20.8 ± 1.4 nM; at H1stem it was 2.6 ± 0.1 nM; on H3 ectodomain, more than 50 nM. Besides, on H1 HA, the ΔTm (°C), purified peptide came out at 3.4 °C. In addition, the “Peptide binding by SPR (in words)” value with H3 ectodomain was “no binding was observed”. The “Inhibition of infection (infected cells relative to untreated control)” value is listed as “strongly inhibited infection” in data set [3], “strongly inhibited infection” in data set [4] and “fell short of inhibiting” in data set [5]. Moreover, the “Binding region in the HA stem (HDX-MS)” value in data set [6] is listed as “aa 369–387”. Further, the “Inhibition of infection at a single concentration” value in [7] is listed as “strong inhibition of infection”. In addition, the IC50 in data set [7] was 104 ± 10.3 nM; in [8] it was 234 ± 66 nM. In “in vitro”, this compound registered a CC50 at 72 h of more than 5000 nM.

For the compound `CC[C@H](C)[C@@H]1NC(=O)[C@H](CCCCN)NC(=O)[C@H](CO)NC(=O)[C@H](Cc2c[nH]c3ccccc23)NC(=O)[C@H](Cc2ccc(O)cc2)NC(=O)[C@H]([C@@H](C)CC)NC(=O)[C@H](CCCCN)NC(=O)[C@H](CC(C)C)NC(=O)[C@@H](Cc2ccc(O)cc2)NC(=O)CSC[C@@H](C(=O)NCC(N)=O)NC(=O)[C@H](Cc2c[nH]c3ccccc23)NC(=O)[C@H](CCC(=O)O)NC(=O)[C@H](CO)NC(=O)[C@H](C(C)C)NC(=O)[C@H](CC(C)C)NC(=O)CNC(=O)[C@H](Cc2c[nH]cn2)NC1=O` [S3] ({CH2CO}-[dY]LKIYWSKIHGLVSEWCG-NH2; thioether N-17), the Kd was not above 1 nM on H1 ectodomain [1], 16.8 ± 0.6 nM at H1 ectodomain [2], 37.2 ± 18.8 nM at H1stem and more than 50 nM at H3 ectodomain. Further, the “ΔTm (°C), crude peptide” value on H1 HA turned out to be 3.8 °C. The “ΔTm (°C), purified peptide” value on H1 HA was 4.2 °C. Besides, the “Peptide binding by SPR (in words)” value with H3 ectodomain is “no binding was observed”. Besides, the results for the “Inhibition of infection (infected cells relative to untreated control)” value in data set [3], in data set [4] and in [5] were “strongly inhibited infection”, “strongly inhibited infection” and “fell short of inhibiting”, respectively. The “Binding region in the HA stem (HDX-MS)” value in data set [6] is “aa 369–387”. The “Inhibition of infection at a single concentration” value in data set [7] is recorded as “strong inhibition of infection”. The results for the IC50 in [7] and in data set [8] were 47.5 ± 7.1 nM and 17.5 ± 1.7 nM, respectively. Further, in the data set “in vitro”, the CC50 at 72 h was more than 5000 nM.

In the case of `CC(C)C[C@@H]1NC(=O)[C@H](C(C)C)NC(=O)[C@@H](Cc2ccc(O)cc2)NC(=O)CSC[C@@H](C(=O)NCC(N)=O)NC(=O)[C@H](C(C)C)NC(=O)[C@H](Cc2c[nH]c3ccccc23)NC(=O)[C@H](Cc2c[nH]cn2)NC(=O)[C@H]([C@@H](C)O)NC(=O)[C@H](C)NC(=O)[C@H](CC(C)C)NC(=O)[C@H]([C@@H](C)O)NC(=O)CNC(=O)[C@H](Cc2c[nH]cn2)NC(=O)[C@H](CC(=O)O)NC(=O)[C@H](Cc2c[nH]c3ccccc23)NC(=O)[C@H](CCCNC(=N)N)NC(=O)[C@H](Cc2ccccc2)NC1=O` [S5] ({CH2CO}-[dY]VLFRWDHGTLATHWVCG-NH2; thioether N-17), the Kd at H1 ectodomain [1] is not above 1 nM; at H1 ectodomain [2], 8.6 ± 1.1 nM; on H1stem, 11.3 ± 2.5 nM; on H3 ectodomain it was more than 50 nM. Moreover, at H1 HA, the “ΔTm (°C), crude peptide” value came to 4.8 °C. At H1 HA, the “ΔTm (°C), purified peptide” value came out at 7.8 °C. The “Peptide binding by SPR (in words)” value in the data set on H3 ectodomain is given as “no binding was observed”. The “Inhibition of infection (infected cells relative to untreated control)” value in [3] is “strongly inhibited infection”; in data set [4], “strongly inhibited infection”; in data set [9] it was “cross-neutralization was observed”; in data set [5] it was “fell short of inhibiting”. Also, the “Binding region in the HA stem (HDX-MS)” value in data set [6] was “aa 369–387”. Besides, the “Interference of the peptide itself with hemagglutination” value with H1N1pdm09 is “does not interfere with hemagglutination”. Moreover, the “Loss of hemagglutination after pH 5 incubation” value in the data set on H1N1pdm09 (pH 5) is listed as “prevented by S5”. Besides, in data set [10], the “Syncytia formation (cell-cell fusion)” value is given as “greatly reduced; also recorded: inhibits fusion between H1 expressing cells”. The “Inhibition of infection at a single concentration” value in [7] is recorded as “strong inhibition of infection”. Further, the “Neutralizing activity in the presence of serum proteins” value in data set [7] is listed as “unaffected by the addition of serum proteins”. This compound also showed a CC50 at 72 h in “in vitro” of more than 5000 nM.
